Source: patent US20110045032A1 (priority 2001, published 2011)
Entries after “also recorded” stand apart in the source; their conditions may differ.

Assays:
Assay type in all cases: in vivo
[1] = test system: dust mite-sensitized rabbits; assay: Bronchial hyperresponsiveness to histamine (Example 27)
Procedure: This follow-up study compared the effects of DHEA-S and Puimicort® (budesonide inhalation suspension) on allergen-induced bronchial hyperresponsiveness (BHR) to histamine and pulmonary inflammation in dust mite-sensitized rabbits. The study included 18 animals divided into 3 treatment groups: saline, DHEA-S, and Puimicort. The animals were treated for once per day for 5 consecutive days via nebulization through a pediatric facemask covering the nose and mouth. Treatments were DHEA-S, 10 mg/day (5 mg/ml), Pulmicort Respules, 0.5 mg/day (0.5 mg/2 ml, note: this is the standard human dose) or saline (2 ml). A dust mite challenge was performed on day 4, and development of airway inflammation was assessed 6 hours and 30 hours after dust mite challenge. Histamine sensitivity was assessed 30 hours after challenge (day 5) and the lungs removed for histology.
There was an increase in the area under the curve of 17.42, which means the animals became more sensitive to histamine following allergen exposure. […] The resulting change in the area under the curve was −4.52 and −6.70 for DHEA-S and Puimicort, respectively, this means that animals treated with DHEA-S or Pulmicort were less sensitive to histamine following allergen exposure.

[2] = test system: dust mite-sensitized cynomolgus monkeys; assay: Early phase pulmonary function response to allergen (Example 24)
Procedure: This study defines the effect of 5 days of treatment with DHEA-S on allergen-induced early phase response, and pulmonary inflammation in dust mite-sensitized cynomolgus monkeys. Baseline parameters were measured the week prior to treatment. DHEA-S (5 mg/ml, 2 ml nebulized) or an equivalent volume of saline was delivered once per day via nebulization (Pari LC+) through a canine facemask covering the nose and mouth on days 1 through 5. Allergen challenge and pulmonary function testing were performed on day 3 several hours after drug treatment, and broncho-alveolar lavage fluid BALF) was collected 48 hours post-challenge. The study includes 6 animals studied under a crossover design with a minimum of 4 weeks rest between study arms. The treatment with DHEA-S led to the following changes in the disease status of the animals:
Effects on airway obstruction were measured by changes in dynamic compliance in response to allergen challenge. Allergic Cynomolgus monkeys were monitored for 15 minutes following allergen challenge and the values plotted against time. Changes in dynamic compliance were determined by the % change in compliance as compared to the animal's initial saline value recorded prior to challenge. Changes in response to allergen and/or treatment were calculated using the area under the curve (AUC) where an AUC unit is defined as % change×minutes. Treatment with DHEA-S attenuated the drop in airway compliance following allergen challenge by 87% as compared to saline treatment. With saline treatment, the total AUC was −394±127 units compared to −49±116 units for animals treated with DHEA-S. See, FIGS. 4.3.1.1; 4.3.1.2. This difference in the total AUC for vehicle and DHEA-S treated animals was determined to be significant using Student's t-test for paired observations, p=0.035. Likewise, treatment with DHEA-S attenuated the increase in airway resistance following allergen challenge by 90% as compared to saline treatment.

[3] = test system: dust mite-sensitized rabbits; assay: Lung histology (Example 26); conditions: blinded veterinary pathologist, scale of 0 to 4; vs vehicle control
Procedure: This study defines the effect of 7 days of treatment with DHEA-S on allergen-induced bronchial hyperresponsiveness (BHR), early and late phase responses, and pulmonary inflammation in dust mite-sensitized rabbits. Baseline BHR and inflammation were first determined. DHEA-S (5 mg/ml, 2 ml nebulized) or an equivalent volume of vehicle was delivered once per day via nebulization through a pediatric facemask covering the nose and mouth on days 1 through 7. On day 8, 24 hours after the last treatment, allergen challenge, pulmonary function testing and BALF were performed. On day 9, 24 hours after allergen challenge a histamine challenge was performed and the lungs removed for histology. The study includes 5 animals studied under a crossover design. […]
Effects on interstitial inflammation were evaluated by histology. A veterinary pathologist evaluated hematoxylin and eosin stained sections in a blinded manner. Sections were scored for inflammatory parameters using a scale of 0 to 4 with 0 representing no finding and 4 representing severe. […] All of the following parameters were scored lower in the DHEA-S treated lungs compared to the vehicle control group: cuffing of the airways and blood vessels by inflammatory cells, bronchial-associated lymphoid tissue hyperplasia, and bronchitis/bronchiolitis. […]

[4] = Acute inhalation toxicity in rats; conditions: rat, in vivo, inhaled; preclinical toxicology studies; not achieved at this dose; read-out: maximum tolerated dose
Procedure: (§1) Other findings were minor in nature and detailed in the reports that follow. Therefore, nebulization of an aqueous solution was determined to be feasible but not practical due to the inability to achieve a sufficient safety factor to support clinical trials.

rats = assay: Acute inhalation toxicity in rats; conditions: inhalation
Procedure: as §1

## CC12CCC3C(CC=C4CC(OS(=O)(=O)[O-])CCC43C)C1CCC2=O.[Na+] (stereo not shown) [DHEA-S, Dehydroepiandrosterone sulfate]
[1]
  change in the area under the histamine dose-response (resistance) curve: −4.52
[1]; 30 hours after challenge
  histamine response curve: tended to shift the histamine response curve downward
[2]; AUC unit = % change×minutes, 15 minutes, saline −394±127
  total area under the curve for the change in compliance following allergen challenge: −49±116 units
[2]; AUC unit = % change×minutes, saline 564±266
  total area under the curve for the change in resistance following allergen challenge: 54±90 units
[2]; compared to saline treatment
  attenuation of the increase in airway resistance following allergen challenge: 90%
[2]; nebulized 5 mg/ml, 2 ml once per day, 5 days, compared to saline treatment
  attenuation of the drop in airway compliance following allergen challenge: 87%
[3]
  histological evaluation of airway inflammation: reduced inflammatory cell cuffing of the vessels and bronchi, bronchus-associated lymphoid tissue hyperplasia, and epithelial sloughing; also recorded: scored lower
[4]
  MTD: > 11 mg/kg/day
rats
  maximum tolerated dose: could not be achieved
rats; up to the maximum feasible dose
  adverse effects to the respiratory tract: did not produce any adverse affects
